Assay results as given in patent publication US7083655B2, “Hair dye composition” (Kao Corporation, priority 2002, dated 2006).

Assay: Measurement of pKa value (spectrophotometric titration)
Format: physicochemical
Details: DMF/water (1/1) solution, 2×10^−5 mol/l, titrated from pH 2 with NaOH, UV-visible spectrum, read-out: pKa value determined
Experimental: pKa values of the azo dyes described below were determined by the following method; The dye was dissolved in a solution of a DMF/water (1/1) volume ratio to a final concentration of 2×10^−5 mol/l. After the resulting solution was adjusted to pH 2, using 1.0 mol/l hydrochloric acid, the solution was titrated with aqueous 1.0 mol/l sodium hydroxide solution. Recording the change of the visible ultra-violet absorption spectrum, the inflection point was determined by regression analysis.

Row | Compound | pKa
1 | CC(=O)Nc1cc(/N=N/c2nncs2)ccc1O [Dye D-29] | 6.04
2 | CCSc1nsc(/N=N/c2cc(Cl)c(O)c(NC(=O)CC)c2)n1 [Dye D-30] | 3.05
3 | Cc1cc(/N=N/c2snc(C)c2C#N)ccc1O [Dye D-37] | 6.37
4 | CCSc1nsc(/N=N/c2cc(Cl)c(O)cc2Cl)n1 [Dye D-38] | 3.5
5 | COc1cc(/N=N/c2snc(C)c2C#N)ccc1O [Dye D-39] | 5.52

Other lines, results leading:

Row | pKa | Compound
6 | 4.46 | Oc1cc(Cl)c(/N=N/c2nc3ccc(Cl)cc3s2)cc1Cl [Dye D-40]
7 | 5.02 | Cc1nsc(/N=N/c2ccc(O)c(Cl)c2)c1C#N [Dye D-41]
8 | 3.9 | Cc1nsc(/N=N/c2cc(F)c(O)c(F)c2)c1C#N [Dye D-43]
9 | 2.28 | CC(C)CSc1nnc(/N=N/c2cc(Cl)c(O)c(Cl)c2Cl)s1 [Dye D-45]
10 | 5.15 | CC(=O)Nc1cc(/N=N/c2nncs2)c(NC(C)=O)cc1O [Dye D-46]
11 | 3.56 | Oc1c(Cl)cc(/N=N/c2nncs2)cc1Cl [Dye D-56]

Same assay, conditions: DMF/water (1/1), 2×10^−5 mol/l, titrated from pH 2 with NaOH, UV-visible spectrum

Row | pKa value determined | Compound
12 | 4.39 | Cc1cc(/N=N/c2nc(-c3cccc(NS(C)(=O)=O)c3)ns2)cc(NCOc2ccccc2NS(C)(=O)=O)c1O [Dye D-34]
13 | 5.39 | Oc1c(NCOc2ccncc2)cc(/N=N/c2nc(-c3ccccc3)no2)c2ccccc12 [Dye D-49]
